Laboratory results: patent US9232789B2, “Biostatic neutralizing composition for aqueous fluids” (ARKEMA FRANCE, priority 2010, dated 2016)

What was measured:
[1] = Test of neutralization (weight of amine necessary for neutralizing 100 g of oleic acid); type: physicochemical; details: for Amount necessary for neutralizing 100 g of oleic acid: weight of amine per 100 g of oleic acid
Experimental: The neutralizing capacity is evaluated by determining the weight of amine (in grams) necessary for neutralizing 100 g of oleic acid. In this example, the neutralizing capacities of the following products are compared: • Amine (1) alone: monoethanolamine (MEoA); • Amine (2) alone: n-heptyldiethanolamine ([…]); • Mixture of amine (1)+amine (2): 70% by weight of MEoA+30% by weight of […].

[2] = test system: Pseudomonas aeruginosa and Staphylococcus aureus; experiment: Test of bacterial proliferation, bactericidal and/or bacteriostatic activity according to standard NF EN 1040; type: cell-based; parameters: key: +: low degree of reduction; ++++: high degree of reduction; details: surviving bacteria counted after 5 minutes contact at 20° C.
Experimental: A test is carried out in order to evaluate the bactericidal and/or bacteriostatic activity of a sample of the composition of the invention, according to the standard NF EN 1040 (April 2006). A sample of a composition as it is (maximum concentration of the test: 80%) and/or diluted with water is added to a test suspension of bacteria (Pseudomonas aeruginosa and Staphylococcus aureus). The mixture is maintained at 20° C. for 5 minutes. An aliquote portion is removed at the end of this contact time; the bactericidal and/or bacteriostatic activity in this withdrawal is immediately neutralized or suppressed according to a validated method. The method used preferably is the dilution-neutralization method. Filtration over a membrane is used when it is not possible to find a suitable neutralizer. The surviving bacteria in each sample are counted, which makes it possible to calculate the degree of reduction, denoted by “+” (low degree of reduction) to “++++” (high degree of reduction) in table 2 below: […]

[3] = type: physicochemical
Description: In this example, the following two amines are considered: • Amine (1) alone: methyldiethanolamine (MDEoA); • Amine (2) alone: n-heptyldiethanolamine (C7DEoA).
The appended FIG. 1 represents a ternary phase diagram between these 2 amines and water. The percentages are expressed by weight. The miscible mixtures are denoted by points (●), the immiscible mixtures are denoted by crosses (X).
The C7DEoA/water binary mixture is not miscible in all proportions. There is immiscibility when the C7DEoA is found in an amount of greater than 50%. In the area of immiscibility (amount of C7DEoA greater than 50%), the MDEoA acts as a coupling agent (co-solvent) when it is present in a content of greater than 15%.

Row | Compound | Amount necessary for neutralizing 100 g of oleic acid [1] [g] | Degree of reduction [2] | neutralizing capacity (in words) ([1]; oleic acid neutralization) | amount of C7DEoA in C7DEoA/water binary mixture at which there is immiscibility [3]
1 | NCCO [MEoA, monoethanolamine, reference compound] | 6.8 | + |  | 
2 | n-heptyldiethanolamine [Composition C7DEoA] | 36 | ++++ | much lower | greater than 50%
